Laboratory results from ChEMBL document CHEMBL1130558, “Synthesis and preliminary structure-activity relationships of 1-[(3-fluoro-4-pyridinyl)amino]-3-methyl-1H-indol-5-yl methyl carbamate (P10358), a novel acetylcholinesterase inhibitor” (Bioorg Med Chem Lett, 1997).
Values belong to the compound of their own block, whether it stands above or below them. The source made the active and inactive calls.

Columns and labels:
Cholinesterase [1] = target: T1, Cholinesterase (Homo sapiens, UniProt P06276); assay: In vitro inhibition of human serum Butyrylcholinesterase using butyrylthiocholine as substrate; 0.00029-0.001
T1 sequence (P06276 whole entry): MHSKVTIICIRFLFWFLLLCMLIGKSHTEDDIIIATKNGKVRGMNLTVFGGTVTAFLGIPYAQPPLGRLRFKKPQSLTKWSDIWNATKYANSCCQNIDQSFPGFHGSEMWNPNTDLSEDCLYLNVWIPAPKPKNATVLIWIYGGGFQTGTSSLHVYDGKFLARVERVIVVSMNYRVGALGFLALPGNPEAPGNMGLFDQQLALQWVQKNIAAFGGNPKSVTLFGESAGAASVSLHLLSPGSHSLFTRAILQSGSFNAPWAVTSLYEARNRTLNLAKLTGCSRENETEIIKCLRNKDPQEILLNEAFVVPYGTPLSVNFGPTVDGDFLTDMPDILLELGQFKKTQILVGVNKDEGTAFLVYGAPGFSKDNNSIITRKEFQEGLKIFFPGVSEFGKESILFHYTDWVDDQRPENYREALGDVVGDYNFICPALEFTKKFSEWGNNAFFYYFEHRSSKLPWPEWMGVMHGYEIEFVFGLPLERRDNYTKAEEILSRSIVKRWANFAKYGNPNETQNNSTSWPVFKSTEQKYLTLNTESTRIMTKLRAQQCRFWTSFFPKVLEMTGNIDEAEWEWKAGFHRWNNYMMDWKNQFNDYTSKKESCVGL

Mus musculus [2] = assay: The percent of animals in the scopolamine-drug group with latencies greater than the cutoff time at subcutaneous dose of 0.1 mg/kg; assay type: functional
Mus musculus [3] = assay: The percent of animals in the scopolamine-drug group with latencies greater than the cutoff time at subcutaneous dose of 0.003 mg/kg; assay type: functional
Mus musculus [4] = assay: The percent of animals in the scopolamine-drug group with latencies greater than the cutoff time at subcutaneous dose of 0.001 mg/kg; assay type: functional
Mus musculus [5] = assay: The percent of animals in the scopolamine-drug group with latencies greater than the cutoff time at subcutaneous dose of 0.01 mg/kg; assay type: functional
Acetylcholinesterase [6] = target: T2, Acetylcholinesterase (Rattus norvegicus, UniProt P37136); assay: Compound was evaluated in vitro in rats for the inhibition of brain (striatal) acetylcholinesterase (AChEI) using acetylthiocholine as substrate; 0.0026-0.031
T2 sequence (P37136 whole entry): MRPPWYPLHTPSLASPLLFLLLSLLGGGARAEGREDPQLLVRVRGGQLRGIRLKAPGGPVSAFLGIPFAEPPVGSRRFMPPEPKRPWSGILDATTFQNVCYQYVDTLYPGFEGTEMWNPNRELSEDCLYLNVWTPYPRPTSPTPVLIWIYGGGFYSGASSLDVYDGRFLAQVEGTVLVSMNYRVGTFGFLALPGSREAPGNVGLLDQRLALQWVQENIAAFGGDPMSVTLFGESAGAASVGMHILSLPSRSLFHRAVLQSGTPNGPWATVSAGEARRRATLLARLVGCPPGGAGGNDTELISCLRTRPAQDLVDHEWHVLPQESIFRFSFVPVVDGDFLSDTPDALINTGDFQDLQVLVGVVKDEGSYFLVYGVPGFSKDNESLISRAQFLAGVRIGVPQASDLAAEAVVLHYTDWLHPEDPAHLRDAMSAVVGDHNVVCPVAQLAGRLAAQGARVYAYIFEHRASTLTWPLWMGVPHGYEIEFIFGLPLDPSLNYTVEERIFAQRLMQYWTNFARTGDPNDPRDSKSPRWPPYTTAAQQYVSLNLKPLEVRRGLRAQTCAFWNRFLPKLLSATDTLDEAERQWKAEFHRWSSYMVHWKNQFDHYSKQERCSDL

[7] = target: T3, Acetylcholinesterase (Rattus norvegicus) (UniProt P37136); assay: Compound was evaluated ex vivo for the inhibition of acetylcholinesterase (AChEI) one hour after oral administration
T3 sequence (whole entry): T2 sequence (P37136 whole entry)

Mus musculus [8] = assay: The percent of animals in the scopolamine-drug group with latencies greater than the cutoff time at subcutaneous dose of 1.0 mg/kg; assay type: functional
Mus musculus [9] = assay: Compound evaluated in vivo for reversing the Scopolamine dementia dark avoidance (SDDA) in mice expressed number of active dosages versus the total number of dosages evaluated; 5/7 and active; assay type: functional, organism-based
Cholinesterase [10] = target: T1, Cholinesterase; assay: In vitro inhibition of human serum Butyrylcholinesterase using butyrylthiocholine as substrate; 0.023-0.041
[11] = target: T3, Acetylcholinesterase (Rattus norvegicus); assay: Tested for percent ex vivo inhibition of rat striatal acetylcholinesterase at peroral dose of 20 mg/kg at 24 hr; assay type: organism-based; design: dose 20 mg/kg
Mus musculus [12] = assay: Compound was evaluated in vivo for the significant activity at all doses in reversing the Scopolamine dementia dark avoidance (SDDA) in mice; 1/6; assay type: functional
Mus musculus [13] = assay: The percent of animals in the scopolamine-drug group with latencies greater than the cutoff time at subcutaneous dose of 0.63 mg/kg; assay type: functional
[14] = target: T3, Acetylcholinesterase (Rattus norvegicus); assay: Tested for percent ex vivo inhibition of rat striatal acetylcholinesterase at peroral dose of 20 mg/kg at 1 hr; assay type: organism-based; design: dose 20 mg/kg
Acetylcholinesterase [15] = target: T2, Acetylcholinesterase; assay: Compound was evaluated in vitro in rats for the inhibition of brain (striatal) acetylcholinesterase (AChEI) using acetylthiocholine as substrate; 0.024-0.14
[16] = target: T3, Acetylcholinesterase (Rattus norvegicus); assay: Tested for percent ex vivo inhibition of rat striatal acetylcholinesterase at peroral dose of 20 mg/kg at 4 hr; assay type: organism-based; design: dose 20 mg/kg
Mus musculus [17] = assay: The percent of animals in the scopolamine-drug group with latencies greater than the cutoff time at subcutaneous dose of 0.04 mg/kg;; assay type: functional
Cholinesterase [18] = target: T1, Cholinesterase; assay: In vitro inhibition of human serum Butyrylcholinesterase using butyrylthiocholine as substrate; 0.01-0.069
Mus musculus [19] = assay: Compound evaluated in vivo for reversing the Scopolamine dementia dark avoidance (SDDA) in mice expressed number of active dosages versus the total number of dosages evaluated; 4/9 and active; assay type: functional, organism-based
Mus musculus [20] = assay: The percent of animals in the scopolamine-drug group with latencies greater than the cutoff time at subcutaneous dose of 1.25 mg/kg; assay type: functional
[21] = target: T3, Acetylcholinesterase (Rattus norvegicus); assay: Tested for percent ex vivo inhibition of rat striatal acetylcholinesterase at peroral dose of 20 mg/kg at 6 hr; assay type: organism-based; design: dose 20 mg/kg
Acetylcholinesterase [22] = target: T2, Acetylcholinesterase; assay: Compound was evaluated in vitro in rats for the inhibition of brain (striatal) acetylcholinesterase (AChEI) using acetylthiocholine as substrate; 0.014-0.14
Mus musculus [23] = assay: The percent of animals in the scopolamine-drug group with latencies greater than the cutoff time at subcutaneous dose of 5 mg/kg; assay type: functional
Mus musculus [24] = assay: The percent of animals in the scopolamine-drug group with latencies greater than the cutoff time at subcutaneous dose of 2.5 mg/kg; assay type: functional
[25] = target: T3, Acetylcholinesterase (Rattus norvegicus); assay: Dose required to exhibit robust maximal effect for acetylcholinesterase (AChE) inhibition following intraperitoneal administration
[26] = target: T3, Acetylcholinesterase (Rattus norvegicus); assay: Tested for percent ex vivo inhibition of rat striatal acetylcholinesterase at peroral dose of 10 mg/kg at 4 hr; assay type: organism-based; design: dose 10 mg/kg
Acetylcholinesterase [27] = target: T2, Acetylcholinesterase; assay: Compound was evaluated in vitro in rats for the inhibition of brain (striatal) acetylcholinesterase (AChEI) using acetylthiocholine as substrate; 0.084-0.19
[28] = target: T3, Acetylcholinesterase (Rattus norvegicus); assay: Tested for percent ex vivo inhibition of rat striatal acetylcholinesterase at peroral dose of 10 mg/kg at 1 hr; assay type: organism-based; design: dose 10 mg/kg
Mus musculus [29] = assay: The percent of animals in the scopolamine-drug group with latencies greater than the cutoff time at subcutaneous dose of 0.3 mg/kg; assay type: functional
[30] = target: T3, Acetylcholinesterase (Rattus norvegicus); assay: Tested for percent ex vivo inhibition of rat striatal acetylcholinesterase at peroral dose of 10 mg/kg at 24 hr; assay type: organism-based; design: dose 10 mg/kg
[31] = target: T3, Acetylcholinesterase (Rattus norvegicus); assay: Tested for percent ex vivo inhibition of rat striatal acetylcholinesterase at peroral dose of 10 mg/kg at 6 hr; assay type: organism-based; design: dose 10 mg/kg
Mus musculus [32] = assay: Compound evaluated in vivo for reversing the Scopolamine dementia dark avoidance (SDDA) in mice expressed number of active dosages versus the total number of dosages evaluated; 3/3 and active; assay type: functional, organism-based
Cholinesterase [33] = target: T1, Cholinesterase; assay: In vitro inhibition of human serum Butyrylcholinesterase using butyrylthiocholine as substrate; 0.15-0.22
Mus musculus [34] = assay: The percent of animals in the scopolamine-drug group with latencies greater than the cutoff time at subcutaneous dose of 0.03 mg/kg; assay type: functional
Mus musculus [35] = assay: The percent of animals in the scopolamine-drug group with latencies greater than the cutoff time at subcutaneous dose of 3.0 mg/kg; assay type: functional
Mus musculus [36] = assay: Compound was evaluated in vivo for the significant activity at all doses in reversing the Scopolamine dementia dark avoidance (SDDA) in mice; 2/3; assay type: functional
Cholinesterase [37] = target: T1, Cholinesterase; assay: In vitro inhibition of human serum Butyrylcholinesterase using butyrylthiocholine as substrate; 0.69-1.2
Acetylcholinesterase [38] = target: T2, Acetylcholinesterase; assay: Compound was evaluated in vitro in rats for the inhibition of brain (striatal) acetylcholinesterase (AChEI) using acetylthiocholine as substrate; 3.3-4.8
[39] = target: T4, Acetylcholine receptor subunit delta (Torpedo californica) (UniProt P02718); assay: In vitro inhibition of Nicotinic acetylcholine receptor stimulation; NI=No inhibition
T4 sequence (whole entry): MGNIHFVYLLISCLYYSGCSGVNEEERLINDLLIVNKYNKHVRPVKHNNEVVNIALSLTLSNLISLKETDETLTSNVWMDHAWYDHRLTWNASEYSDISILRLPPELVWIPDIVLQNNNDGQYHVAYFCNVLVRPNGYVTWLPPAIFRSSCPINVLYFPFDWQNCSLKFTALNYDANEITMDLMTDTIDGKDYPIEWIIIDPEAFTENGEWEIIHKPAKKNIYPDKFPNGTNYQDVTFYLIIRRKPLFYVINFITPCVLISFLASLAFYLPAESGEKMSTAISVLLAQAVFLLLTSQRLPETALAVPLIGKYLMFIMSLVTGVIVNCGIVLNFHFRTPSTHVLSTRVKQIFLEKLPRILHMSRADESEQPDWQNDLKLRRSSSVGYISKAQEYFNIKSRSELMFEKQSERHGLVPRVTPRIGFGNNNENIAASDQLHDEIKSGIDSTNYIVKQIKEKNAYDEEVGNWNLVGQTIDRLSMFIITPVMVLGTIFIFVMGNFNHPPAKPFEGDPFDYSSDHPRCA

[40] = target: T5, Muscarinic acetylcholine receptor M4 (Homo sapiens) (UniProt P08173); assay: In vitro inhibition of muscarinic receptor stimulation; NI=No inhibition
T5 sequence (whole entry): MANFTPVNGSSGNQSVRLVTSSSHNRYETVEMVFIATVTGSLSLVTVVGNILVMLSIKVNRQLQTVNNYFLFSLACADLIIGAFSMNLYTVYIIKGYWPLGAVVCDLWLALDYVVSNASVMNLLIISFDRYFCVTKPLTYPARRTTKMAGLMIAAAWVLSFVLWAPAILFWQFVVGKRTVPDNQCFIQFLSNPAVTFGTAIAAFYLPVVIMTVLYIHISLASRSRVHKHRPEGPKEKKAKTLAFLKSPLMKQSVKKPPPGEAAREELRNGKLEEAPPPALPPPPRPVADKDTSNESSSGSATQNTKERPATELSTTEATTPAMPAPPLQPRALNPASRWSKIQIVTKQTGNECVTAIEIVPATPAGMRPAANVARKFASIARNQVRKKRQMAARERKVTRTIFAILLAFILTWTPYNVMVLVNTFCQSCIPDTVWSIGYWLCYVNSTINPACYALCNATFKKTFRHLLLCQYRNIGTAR

Acetylcholinesterase [41] = target: T2, Acetylcholinesterase; assay: Compound was evaluated in vitro in rats for the inhibition of brain (striatal) acetylcholinesterase (AChEI) using acetylthiocholine as substrate; 21-88

SMILES: CCCCCCCNC(=O)Oc1ccc2c(c1)[C@]1(C)CCN(C)[C@@H]1N2C [EPTASTIGMINE]
- IC50 (Cholinesterase [1]): 0.69 nM
- Response (Mus musculus [2]): 33%
- Response (Mus musculus [3]): 53%
- Response (Mus musculus [4]): 40%
- Response (Mus musculus [5]): 45%
- IC50 (Acetylcholinesterase [6]): 9 nM
- ED50 [7]: 10.1 mg/kg
- Response (Mus musculus [8]): 20%
- Activity (Mus musculus [9]): Active

SMILES: CCCN(c1ccncc1F)n1cc(C)c2cc(OC(=O)NC)ccc21
- IC50 (Cholinesterase [10]): 31 nM
- inhibition [11]: 9%
- Activity (Mus musculus [12]): 1
- Response (Mus musculus [13]): 27%
- inhibition [14]: 50%
- IC50 (Acetylcholinesterase [15]): 58 nM
- inhibition [16]: 41%

SMILES: CCCN(c1ccncc1F)n1cc(C)c2cc(OC(=O)NCc3ccccc3)ccc21
- inhibition [11]: 2%
- Response (Mus musculus [17]): 20%
- IC50 (Cholinesterase [18]): 27 nM
- Activity (Mus musculus [19]): Active
- Response (Mus musculus [20]): 20%
- inhibition [21]: 6%
- IC50 (Acetylcholinesterase [22]): 43 nM
- Response (Mus musculus [23]): 20%
- Response (Mus musculus [24]): 20%
- inhibition [14]: 15%
- inhibition [16]: 12%

SMILES: CNC(=O)Oc1ccc2c(c1)c(C)cn2Nc1ccncc1F
- DOSE [25]: 0.625 mg/kg
- inhibition [26]: 56%
- IC50 (Acetylcholinesterase [27]): 130 nM
- inhibition [28]: 67%
- Response (Mus musculus [29]): 28%
- inhibition [30]: 0%
- inhibition [11]: 20%
- Response (Mus musculus [2]): 21%
- inhibition [21]: 82%
- inhibition [31]: 3%
- ED50 [7]: 8.3 mg/kg
- inhibition [14]: 82%
- Activity (Mus musculus [32]): Active
- IC50 (Cholinesterase [33]): 190 nM
- inhibition [16]: 84%
- Response (Mus musculus [34]): 40%

SMILES: CCCCNC(=O)Oc1ccc2c(c1)c(C)cn2N(CCC)c1ccncc1F
- Response (Mus musculus [35]): 33%
- Activity (Mus musculus [36]): 2
- inhibition [11]: 11%
- IC50 (Cholinesterase [37]): 920 nM
- IC50 (Acetylcholinesterase [38]): 4000 nM
- Response (Mus musculus [8]): 33%
- inhibition [16]: 26%

- Activity [39]: inactive
- Activity [40]: inactive
SMILES: CCCN(c1ccncc1)n1ccc2ccccc21

SMILES: CCCCCCCNC(=O)Oc1ccc2c(c1)c(C)cn2N(CCC)c1ccncc1F
- IC50 (Acetylcholinesterase [41]): 43000 nM
